Test results from ChEMBL document CHEMBL3797097 (J Med Chem, 2016).

Experiments:
D(3) dopamine receptor [1] = target: T1, D(3) dopamine receptor (Homo sapiens, UniProt P35462); assay: Agonist activity at recombinant human D3 receptor expressing in CHOp cells assessed as receptor mediated stimulation of mitogenesis measured as [3H]thymidine incorporation after 24 hrs by scintillation spectrometry; assay type: cell-based
D(2) dopamine receptor [2] = target: T2, D(2) dopamine receptor (Homo sapiens, UniProt P14416); assay: Agonist activity at recombinant human D2 receptor expressing in CHOp cells assessed as receptor mediated stimulation of mitogenesis measured as [3H]thymidine incorporation after 24 hrs by scintillation spectrometry; assay type: cell-based
T2 sequence (P14416 whole entry): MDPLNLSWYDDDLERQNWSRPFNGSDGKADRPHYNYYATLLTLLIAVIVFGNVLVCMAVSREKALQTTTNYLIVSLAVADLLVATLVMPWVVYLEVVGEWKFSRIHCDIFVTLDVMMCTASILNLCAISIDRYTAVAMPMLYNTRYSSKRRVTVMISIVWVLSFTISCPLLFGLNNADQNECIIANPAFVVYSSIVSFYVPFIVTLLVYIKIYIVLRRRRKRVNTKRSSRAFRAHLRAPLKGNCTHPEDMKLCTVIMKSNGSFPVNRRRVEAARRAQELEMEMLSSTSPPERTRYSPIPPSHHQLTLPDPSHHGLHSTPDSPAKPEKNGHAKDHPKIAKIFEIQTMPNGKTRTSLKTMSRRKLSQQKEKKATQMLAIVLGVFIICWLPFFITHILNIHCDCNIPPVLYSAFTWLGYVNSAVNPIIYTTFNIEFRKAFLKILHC

D(3) dopamine receptor [3] = target: T1, D(3) dopamine receptor; assay: Displacement of [3H]N-methylspiperone from human D3 receptor transfected in HEK293 cells measured after 60 mins by liquid scintillation counter; assay type: cell-based
D(3) dopamine receptor [4] = target: T1, D(3) dopamine receptor; assay: Agonist activity at human D3 receptor transfected in HEK293T cells by BRET based G0 activation assay; assay type: cell-based, HEK-293T
Homo sapiens [5] = species: Homo sapiens; assay: Selectivity index, ratio Ki for human D3 receptor to Ki for human D2 receptor using [3H]7-OH-DPAT displacement assay
D(2) dopamine receptor [6] = target: T2, D(2) dopamine receptor; assay: biochemical; assay type: cell-based, HEK293
D(3) dopamine receptor [7] = target: T1, D(3) dopamine receptor; assay: Displacement of [3H]7-OH-DPAT from human D3 receptor transfected in HEK293 cells measured after 60 mins by liquid scintillation counter; assay type: cell-based
D(2) dopamine receptor [8] = target: T2, D(2) dopamine receptor; assay: biochemical; assay type: cell-based, HEK293; remark: listed apart in the source
Homo sapiens [9] = species: Homo sapiens; assay: Selectivity index, ratio Ki for human D3 receptor to Ki for human D2 receptor using [3H]N-methylspiperone displacement assay
D(2) dopamine receptor [10] = target: T2, D(2) dopamine receptor; assay: Agonist activity at human D2 receptor transfected in HEK293T cells by BRET based G0 activation assay; assay type: cell-based, HEK-293T

T1 sequence (P35462 whole entry): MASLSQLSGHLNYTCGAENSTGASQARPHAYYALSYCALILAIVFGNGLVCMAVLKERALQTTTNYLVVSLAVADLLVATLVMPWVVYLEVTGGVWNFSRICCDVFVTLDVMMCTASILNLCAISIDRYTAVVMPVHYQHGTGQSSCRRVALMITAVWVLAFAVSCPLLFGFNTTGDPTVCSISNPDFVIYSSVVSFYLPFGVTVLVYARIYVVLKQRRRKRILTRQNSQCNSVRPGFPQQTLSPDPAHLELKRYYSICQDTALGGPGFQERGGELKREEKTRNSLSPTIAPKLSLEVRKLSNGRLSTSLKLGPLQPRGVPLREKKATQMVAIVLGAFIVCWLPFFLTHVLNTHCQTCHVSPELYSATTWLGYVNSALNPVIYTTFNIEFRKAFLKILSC

CCCCn1c(=O)n2c3c(cccc31)C[C@@H](NC)C2
EC50 (D(3) dopamine receptor [1]): 0.022 µM | EC50 (D(2) dopamine receptor [2]): 0.083 µM | Ki (D(3) dopamine receptor [3]): 0.0103 µM | EC50 (D(3) dopamine receptor [4]): 0.0256 µM | Ratio Ki (Homo sapiens [5]): 11 | Ki (D(2) dopamine receptor [6]): 0.0128 µM | Ki (D(3) dopamine receptor [7]): 0.142 µM | Ki (D(2) dopamine receptor [8]): 0.361 µM | Ratio Ki (Homo sapiens [9]): 0.03 | EC50 (D(2) dopamine receptor [10]): 0.0305 µM

CCCN(CCC)[C@@H]1Cc2cccc3nc(O)n(c23)C1
Ratio Ki (Homo sapiens [5]): 2.4

CCCN[C@@H]1Cc2cccc3c2n(c(=O)n3CCC)C1
EC50 (D(3) dopamine receptor [1]): 0.0561 µM | EC50 (D(2) dopamine receptor [2]): 0.013 µM | Ki (D(3) dopamine receptor [3]): 0.0479 µM | EC50 (D(3) dopamine receptor [4]): 1.42 µM | Ratio Ki (Homo sapiens [5]): 2.7 | Ki (D(2) dopamine receptor [6]): 0.00808 µM | Ki (D(3) dopamine receptor [7]): 0.0217 µM | Ki (D(2) dopamine receptor [8]): 0.868 µM | Ratio Ki (Homo sapiens [9]): 0.06 | EC50 (D(2) dopamine receptor [10]): 0.068 µM

CN(CCCCNC(=O)c1ccc2c(c1)Cc1ccccc1-2)[C@@H]1Cc2cccc3[nH]c(=O)n(c23)C1
EC50 (D(3) dopamine receptor [1]): 0.0119 µM | EC50 (D(2) dopamine receptor [2]): 0.102 µM | Ki (D(3) dopamine receptor [3]): 1.09 µM | EC50 (D(3) dopamine receptor [4]): 0.125 µM | Ratio Ki (Homo sapiens [5]): 2.3 | Ki (D(2) dopamine receptor [6]): 0.00547 µM | Ki (D(3) dopamine receptor [7]): 0.0125 µM | Ki (D(2) dopamine receptor [8]): 3.7 µM | Ratio Ki (Homo sapiens [9]): 0.29 | EC50 (D(2) dopamine receptor [10]): 0.109 µM

CCCN[C@@H]1Cc2cccc3nc(O)n(c23)C1
EC50 (D(3) dopamine receptor [1]): 0.00081 µM | Ki (D(3) dopamine receptor [3]): 0.41 µM | EC50 (D(3) dopamine receptor [4]): 0.0183 µM | Ki (D(3) dopamine receptor [7]): 0.0255 µM

CN[C@@H]1Cc2cc(C#N)cc3[nH]c(=O)n(c23)C1
Ki (D(3) dopamine receptor [3]): 27.2 µM | Ki (D(2) dopamine receptor [6]): 5.12 µM

CCCN(CCC)[C@@H]1Cc2cccc3c2n(c(=O)n3CCC)C1
EC50 (D(3) dopamine receptor [1]): 0.0037 µM | EC50 (D(2) dopamine receptor [2]): 0.0137 µM | Ki (D(3) dopamine receptor [3]): 0.00605 µM | EC50 (D(3) dopamine receptor [4]): 0.0519 µM | Ratio Ki (Homo sapiens [5]): 1.3 | Ki (D(2) dopamine receptor [6]): 0.00259 µM | Ki (D(3) dopamine receptor [7]): 0.00339 µM | Ki (D(2) dopamine receptor [8]): 0.146 µM | Ratio Ki (Homo sapiens [9]): 0.04 | EC50 (D(2) dopamine receptor [10]): 0.0339 µM

CCCN(CCC)[C@@H]1Cc2cccc3[nH]c(=O)n(c23)C1
EC50 (D(3) dopamine receptor [4]): 0.0218 µM | Ki (D(2) dopamine receptor [6]): 0.0114 µM | Ki (D(3) dopamine receptor [7]): 0.0271 µM | EC50 (D(2) dopamine receptor [10]): 0.00253 µM

CN[C@@H]1Cc2cccc3[nH]c(=O)n(c23)C1 [SUMANIROLE]
EC50 (D(3) dopamine receptor [1]): 0.669 µM | Ki (D(3) dopamine receptor [3]): 6.33 µM | EC50 (D(3) dopamine receptor [4]): 0.186 µM | Ki (D(3) dopamine receptor [7]): 0.546 µM

CCCN(C)[C@@H]1Cc2cccc3[nH]c(=O)n(c23)C1
EC50 (D(3) dopamine receptor [1]): 0.148 µM | EC50 (D(2) dopamine receptor [2]): 0.0181 µM | Ki (D(3) dopamine receptor [3]): 0.29 µM | EC50 (D(3) dopamine receptor [4]): 0.0307 µM | Ratio Ki (Homo sapiens [5]): 8.3 | Ki (D(2) dopamine receptor [6]): 0.0125 µM | Ki (D(3) dopamine receptor [7]): 0.104 µM | Ki (D(2) dopamine receptor [8]): 1.18 µM | Ratio Ki (Homo sapiens [9]): 0.25 | EC50 (D(2) dopamine receptor [10]): 0.029 µM

CN(CCCCNC(=O)c1cc2ccccc2[nH]1)[C@@H]1Cc2cccc3[nH]c(=O)n(c23)C1
EC50 (D(3) dopamine receptor [1]): 0.053 µM | Ki (D(3) dopamine receptor [3]): 0.337 µM | EC50 (D(3) dopamine receptor [4]): 0.0943 µM | Ki (D(3) dopamine receptor [7]): 0.0769 µM

CCCn1c(=O)n2c3c(cccc31)C[C@@H](NC)C2
EC50 (D(3) dopamine receptor [1]): 0.178 µM | EC50 (D(2) dopamine receptor [2]): 0.549 µM | Ki (D(3) dopamine receptor [3]): 0.187 µM | EC50 (D(3) dopamine receptor [4]): 0.0537 µM | Ratio Ki (Homo sapiens [5]): 7.5 | Ki (D(2) dopamine receptor [6]): 0.0132 µM | Ki (D(3) dopamine receptor [7]): 0.0995 µM | Ki (D(2) dopamine receptor [8]): 0.751 µM | Ratio Ki (Homo sapiens [9]): 0.25 | EC50 (D(2) dopamine receptor [10]): 0.0387 µM

N[C@@H]1Cc2cccc3[nH]c(=O)n(c23)C1
EC50 (D(3) dopamine receptor [1]): 3.4 µM | EC50 (D(2) dopamine receptor [2]): 0.684 µM | Ki (D(3) dopamine receptor [3]): 11.8 µM | EC50 (D(3) dopamine receptor [4]): 1.89 µM | Ratio Ki (Homo sapiens [5]): 30 | Ki (D(2) dopamine receptor [6]): 0.114 µM | Ki (D(3) dopamine receptor [7]): 3.39 µM | Ki (D(2) dopamine receptor [8]): 12.1 µM | Ratio Ki (Homo sapiens [9]): 0.98 | EC50 (D(2) dopamine receptor [10]): 0.697 µM
